Assays:
Format in all cases: cell-based
[1] = test system: Trichoderma pseudokoningii (ATCC #26801), Aureobasidium pullulans (ATCC #9348), and a mixture of Aspergillus niger (ATCC #6275) and Penicillium funiculosum …; assay: ASTM D4445-10 cumulative fungal growth of all three examined organisms and Synergy Index; conditions: for Σ Fungal Growth: cumulative score of the three sets of fungi; for % of Water-Only Control: Σ fungal growth normalized to water-only control
Description: (§1) Radiata pine lumber was machined to specimens with size of 7 mm by 20 mm in cross section and 70 mm long. Solutions prepared as described above were used to treat the machined Radiata pine specimens. The treatment was carried out in a 600 mL beaker. Two unused test pieces were placed on the bottom of the beaker, and the specimens, four in a layer, were placed on the previous layers until all the treatment replicates were included. The specimens were held down with a finger bearing down on a watch glass and submerged in treating solution for 15 seconds. After 15 seconds, the beaker was drained but with specimens still held down, and then was tightly covered with a piece of plastic sheet to prevent drying and was stored overnight. Similarly, untreated control specimens were treated with water.
(§2) One day after treatment, duplicate wood specimens from the same treatment group were tested according to ASTM D4445-10 methodology. The wood specimens were checked for inhibition against sapstain fungi and molds Trichoderma pseudokoningii (ATCC #26801), Aureobasidium pullulans (ATCC #9348), and a mixture of Aspergillus niger (ATCC #6275) and Penicillium funiculosum (ATCC #11797). This method is described below:
(§3) (1) Placed duplicate wood specimens on top of polyester mesh and laid on a stack of four (4) filter paper squares (approximately 2 inches by 2.5 inches) presoaked in 5 mL sterile DI water.
(§4) (2) Prepared fungal mixture from freshly grown slants of each test organism.
(§5) (3) Added 2 mL of DI water and 0.1% Tween 20 to the slant and inverted to mix.
(§6) (4) Poured the concentrate into a total volume of 16 mL.
(§7) (5) Enumerated the stock via hemocytometer and adjusted to […] with additional DI water.
(§8) (6) Inoculated wood specimens via applying 0.25 mL of one of the three separate fungal suspensions to the top of the wood and distributing evenly on the surface with an L-spreader.
(§9) (7) Placed inoculated wood specimens in a humidity chamber for one month at 95% or larger relative humidity and 28° C.
(§10) (8) Rated wood specimens with a rating from “0” (No Growth) to “5” (Complete Growth).
In order to show more directly the possible synergy in the invention, the results are presented by applying the Synergy Index (S.I.), which is analyzed using the following equation:
FGA=Cumulative fungal growth scores of all three examined organisms of compound […], acting alone
FGA′=Cumulative fungal growth scores of all three examined organisms of compound […], in the mixture
FGB=Cumulative fungal growth scores of all three examined organisms of compound […], acting alone
FGB′=Cumulative fungal growth scores of all three examined organisms of compound […], in the mixture
When SI is greater than 1, antagonism is indicated. […] When SI equals to 1, the action of biocides is additive.
as §1, with “treat” for “treat the”
as §2, with “D4445-10(2019)” for “D4445-10”, “This method is described below:” left out

[2] = test system: Aureobasidium pullulans (ATCC #9348); assay: ASTM D4445-10 fungal growth on dip-treated Radiata pine specimens; conditions: rating 0 (No Growth) to 5 (Complete Growth), one month, 28° C.
Description: as §1, §2, §3, §4, §5, §6, §7, §8, §9, §10
as §1, with “treat” for “treat the”
as §2, with “D4445-10(2019)” for “D4445-10”, “This method is described below:” left out

[3] = test system: Trichoderma pseudokoningii (ATCC #26801); assay: as above; conditions: rating 0 (No Growth) to 5 (Complete Growth), one month, 28° C.
Description: as §1, §2, §3, §4, §5, §6, §7, §8, §9, §10
as §1, with “treat” for “treat the”
as §2, with “D4445-10(2019)” for “D4445-10”, “This method is described below:” left out

[4] = test system: mixture of Aspergillus niger (ATCC #6275) and Penicillium funiculosum (ATCC #11797); assay: as above; conditions: rating 0 (No Growth) to 5 (Complete Growth), one month, 28° C.
Description: as §1, §2, §3, §4, §5, §6, §7, §8, §9, §10
as §1, with “treat” for “treat the”
as §2, with “D4445-10(2019)” for “D4445-10”, “This method is described below:” left out

[5] = 2400 ppm treatment solution, Example 2
[6] = 2400 ppm treatment solution, Example 3
[7] = 4800 ppm treatment solution, Example 2
[8] = 2400 ppm treatment solution, Example 2, eight replicates
[9] = 2400 ppm treatment solution, Example 3, ten replicates
[10] = 4800 ppm treatment solution, Example 2, eight replicates

| Molecule | Σ Fungal Growth [1, 5] | % of Water-Only Control [1, 5] [%] | Σ Fungal Growth [1, 6] | % of Water-Only Control [1, 6] [%] | Σ Fungal Growth [1, 7] | % of Water-Only Control [1, 7] [%] | Average Scoring A.p. [2, 8] | Average Scoring A.p. [2, 9] | Average Scoring A.p. [2, 10] | Average Scoring T.p. [3, 8] | Average Scoring T.p. [3, 9] | Average Scoring T.p. [3, 10] | Average Scoring A.n. + P.f. [4, 8] | Average Scoring A.n. + P.f. [4, 9] | Average Scoring A.n. + P.f. [4, 10] |
| --- | --- | --- | --- | --- | --- | --- | --- | --- | --- | --- | --- | --- | --- | --- | --- |
| CCCCNC(=O)OCC#CI [IPBC, 3-iodo-2-propynyl butyl carbamate] | 2.6 | 18.9 | 3.8 | 29.23 | 2.8 | 19.8 | 0.0 | 0 | 0.0 | 2.6 | 1.7 | 2.8 | 0.0 | 2.1 | 0.0 |
| didecyl bis(hydroxyethyl) ammonium borate [DPAB] | 10.8 | 77.5 | 7.6 | 58.46 | 7.6 | 55.0 | 3.3 | 3.6 | 0.8 | 2.5 | 2 | 2.0 | 5.0 | 2 | 4.9 |

Reference: patent US20220161456A1, “S[…] PRESERVATIVE COMPOSITION COMPRISING POLYMERIC BETAINE AND CARBAMATE” (Troy Corporation, priority 2019, published 2022)
